Molecular target: CB1 receptor (Homo sapiens, UniProt P21554)
Assay: CB1 cAMP Antagonist Assay (LANCE Ultra cAMP kit)
Format: cell-based
Conditions: Flp-In CHO cells stably expressing the CB1 receptor; forskolin and CP55940 agonist at EC90; cAMP FRET readout
Source text: CB1 cAMP Antagonist Assay
LANCE Ultra cAMP kit (Perkin Elmer) was used to quantitate the amount of 3′,5′-cyclic adenosine monophosphate (cAMP) produced in Flp-In CHO (Invitrogen) cells stably expressing the CB1 receptor.
Forskolin was initially titrated to determine the response of the cells. The EC90 of forskolin was used for compound testing. CP55940 was titrated and used with EC90 of forskolin to determine the level of agonist stimulation. EC90 of the agonist was used for subsequent compound testing.
Forskolin (Sigma), CP55940 (Cayman Chemicals), and AM251 (MCE) were diluted in 100% DMSO, starting at 100 mM, 1 mM, and 1 mM respectively, in 3-fold serial dilutions. Test compounds were diluted in 100% DMSO starting from 10 mM, 3-fold dilutions. The cAMP assay buffer contains 1x Hank’s Buffered Saline Solution with Ca^2+ and Mg^2+ (Invitrogen), 5.3 mM HEPES (Invitrogen), 0.05% BSA, 0.5 mM IBMX (Sigma).
For all assays, cells were harvested, counted, and diluted in cAMP assay buffer to 1× 10^5 cells/mL. Only cells with viability >85% were used for the assay. Cells were seeded at 1000 cells/well in 384-well plates and 10 nL/well AM251 or test compound was added and incubated at 37° C. for 10 min. […] To detect the amount of cAMP produced, 5 µL of a 100x diluted stock of Eu-cAMP tracer and 5 µL of 200x diluted stock of Ulight-anti-cAMP were added to each well, and the plate incubated at 25° C. for 15 min. The FRET signal was read using an EnVision microplate reader (λex=320 nm, λem=615 nm and 665 nm).
The IC50 is determined by fitting the percentage of inhibition as a function of compound concentrations with the Hill equation, using a 4-parameter fit in either XLfit or GraphPad Prism.

CB1 receptor, sequence (P21554 whole entry): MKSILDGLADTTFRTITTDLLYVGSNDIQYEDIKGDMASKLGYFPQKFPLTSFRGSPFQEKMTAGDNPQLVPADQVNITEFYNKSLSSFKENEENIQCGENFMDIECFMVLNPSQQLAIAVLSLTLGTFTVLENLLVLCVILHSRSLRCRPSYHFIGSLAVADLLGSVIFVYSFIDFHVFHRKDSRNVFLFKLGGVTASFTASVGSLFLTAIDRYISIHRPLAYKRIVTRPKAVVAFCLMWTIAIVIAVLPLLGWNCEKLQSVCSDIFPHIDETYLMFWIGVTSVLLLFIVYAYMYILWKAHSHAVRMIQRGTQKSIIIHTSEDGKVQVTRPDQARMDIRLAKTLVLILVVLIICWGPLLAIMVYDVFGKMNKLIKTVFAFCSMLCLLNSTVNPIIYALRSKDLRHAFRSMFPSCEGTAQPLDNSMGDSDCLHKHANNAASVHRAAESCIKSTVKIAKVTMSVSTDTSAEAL

`NC(=O)CCn1c(N2CC3(CCc4ccccc43)C(c3ccc(Cl)cc3)=N2)nn(Cc2ccc(Cl)cc2)c1=O` (stereo in doubt) [Compound 132, 3-[3-[(1R)-3-(4-chlorophenyl)-1,2,3,5-tetrahydrospiro[indene-1,4-pyrazol]-1-yl]-1-[(4-chlorophenyl)methyl]-5-oxo-4,5-dihydro-1H-1,2,4-triazol-4-yl]propanamide] gave an IC50 of 1 to 5 µM.

With `Cn1c(N2C[C@@H](c3ccccc3)C(c3ccc(Cl)cc3)=N2)nn(Cc2ccc(Cl)cc2)c1=O` [Compound 103] the IC50 was < 0.1 µM.

With `CN1CCN(Cc2ccc(Cn3nc(N4C[C@H](c5ccccc5)C(c5ccc(Cl)cc5)=N4)n(C)c3=O)cc2)CC1` [Compound 137] the IC50 was 1 to 5 µM.

`NC(=O)Cn1c(N2C[C@@H](c3ccccc3)C(c3ccc(Cl)cc3)=N2)nn(-c2ccc(Cl)cc2)c1=O` [Compound 108, 2-[1-(4-chlorophenyl)-3-[(4R)-3-(4-chlorophenyl)-4-phenyl-4,5-dihydro-1H-pyrazol-1-yl]-5-oxo-4,5-dihydro-1H-1 ,2,4-triazol-4-yl]acetamide] was tested, and the IC50 was < 0.1 µM.

`CC(C(N)=O)n1c(N2CC(c3ccccc3)C(c3ccc(Cl)cc3)=N2)nn(CC2CCCCC2)c1=O` (stereo not shown) [Compound 158, 2-[3-[3-(4-chlorophenyl)-4-phenyl-4,5-dihydropyrazol-1-yl]-1-(cyclohexylmethyl)-5-oxo-1,2,4-triazol-4-yl]propanamide] was tested, and the IC50 was < 0.1 µM.

`Cn1c(N2CC(c3ccccc3)C(c3ccc(Cl)cc3)=N2)nn(Cc2ccc(Cl)cn2)c1=O` (stereo not shown) [Compound 177] was tested, and the IC50 was < 0.1 µM.

For `O=c1[nH]nc(N2C[C@H](c3ccccc3)C(c3ccc(Cl)cc3)=N2)[nH]1` [Compound 211, 5-[(4S)-3-(4-chlorophenyl)-4-phenyl-4,5-dihydropyrazol-1-yl]-2,4-dihydro-1,2,4-triazol-3-one], the IC50 was > 5 µM.

With `O=C(O)CCn1c(N2C[C@]3(CCc4ccccc43)C(c3ccc(Cl)cc3)=N2)nn(Cc2ccc(Cl)cc2)c1=O` [Compound 127] the IC50 was > 5 µM.

For `COC(=O)c1ccc(Cn2nc(N3CC(c4ccccc4)C(c4ccc(Cl)cc4)=N3)n(C)c2=O)cc1` (stereo not shown) [Compound 168], the IC50 was < 0.1 µM.

`Cn1nc(N2C[C@@]3(CCc4ccccc43)C(c3ccc(Cl)cc3)=N2)n(C)c1=O` [Compound 141] gave an IC50 of 1 to 5 µM.

With `COc1ccc(Cn2nc(N3C[C@H](c4ccccc4)C(c4ccc(Cl)cc4)=N3)n(C)c2=O)cc1` [Compound 143] the IC50 was < 0.1 µM.

`C[C@H](C(N)=O)n1c(N2C[C@@H](c3ccccc3)C(c3ccc(Cl)cc3)=N2)n[nH]c1=O` [Compound 199] was tested, and the IC50 was > 5 µM.

`Cn1c(N2C[C@@]3(CCc4ccccc43)C(c3ccc(Cl)cc3)=N2)nn(-c2ccc(Cl)cc2)c1=O` [Compound 116] was tested, and the IC50 was > 5 µM.

In the case of `CN1CCN(Cc2ccc(Cn3nc(N4C[C@@H](c5ccccc5)C(c5ccc(Cl)cc5)=N4)n(C)c3=O)cc2)CC1` [Compound 135], the IC50 is reported as > 5 µM.

For `COc1ccc(Cn2nc(N3C[C@@H](c4ccccc4)C(c4ccc(Cl)cc4)=N3)n(C)c2=O)cc1` [Compound 142], the IC50 was 1 to 5 µM.

`O=c1n(-c2ccc(Cl)cc2)nc(N2C[C@]3(CCc4ccccc43)C(c3ccc(Cl)cc3)=N2)n1CCO` [Compound 114, 1-(4-chlorophenyl)-3-[(1R)-3-(4-chlorophenyl)-1,2,3,5-tetrahydrospiro[indene-1,4-pyrazol]-1-yl]-4-(2-hydroxyethyl)-4,5-dihydro-1H-1,2,4-triazol-5-one] was tested, and the IC50 was 0.1 to 1 µM.

With `Cn1c(N2C[C@@H](c3ccccc3)C(c3ccc(Cl)cc3)=N2)nn(CCc2ccc(C(=O)NCCO)cc2)c1=O` [Compound 210] the IC50 was > 5 µM.

With `NC(=O)Cn1c(N2C[C@H](c3ccccc3)C(c3ccc(Cl)cc3)=N2)nn(-c2ccc(Cl)cc2)c1=O` [Compound 111, (S)-2-(1-(4-chlorophenyl)-3-(3-(4-chlorophenyl)-4-phenyl-4,5-dihydro-1H-pyrazol-1-yl)-5-oxo-1,5-dihydro-4H-1,2,4-triazol-4-yl)acetamide] the IC50 was < 0.1 µM.

`NC(=O)Cn1c(N2C[C@@]3(CCc4ccccc43)C(c3ccc(Cl)cc3)=N2)nn(Cc2ccc(Cl)cc2)c1=O` [Compound 125, 2-[3-[(1S)-3-(4-chlorophenyl)-1,2,3,5-tetrahydrospiro[indene-1,4-pyrazol]-1-yl]-1-[(4-chlorophenyl)methyl]-5-oxo-4,5-dihydro-1H-1,2,4-triazol-4-yl]acetamide] was tested, and the IC50 was 1 to 5 µM.

In the case of `Cn1c(N2C[C@H](c3ccccc3)C(c3ccc(Cl)cc3)=N2)n[nH]c1=O` [Compound 172, 5-[(4S)-3-(4-chlorophenyl)-4-phenyl-4,5-dihydropyrazol-1-yl]-4-methyl-2H-1,2,4-triazol-3-one], the IC50 is reported as 1 to 5 µM.

With `C[C@H](C(N)=O)n1c(N2C[C@H](c3ccccc3)C(c3ccc(Cl)cc3)=N2)n[nH]c1=O` [Compound 206] the IC50 was > 5 µM.

`C[C@@H](C(N)=O)n1c(N2C[C@@H](c3ccccc3)C(c3ccc(Cl)cc3)=N2)nn(Cc2ccc(Cl)cc2)c1=O` [Compound 179] was tested, and the IC50 was > 5 µM.

Work on `Cn1c(N2CC3(CCc4ccccc43)C(c3ccc(Cl)cc3)=N2)nn(CC2CCCCC2)c1=O` (stereo in doubt) [Compound 139, 3-[(1S)-3-(4-chlorophenyl)-1,2,3,5-tetrahydrospiro[indene-1,4-pyrazol]-1-yl]-1-(cyclohexylmethyl)-4-methyl-4,5-dihydro-1H-1,2,4-triazol-5-one] yielded an IC50 of 0.1 to 1 µM.

For `NC(=O)Cn1c(N2C[C@H](c3ccccc3)C(c3ccc(Cl)cc3)=N2)nn(Cc2ccc(Cl)cc2)c1=O` [Compound 107, 2-[3-[(4S)-3-(4-chlorophenyl)-4-phenyl-4,5-dihydro-1H-pyrazol-1-yl]-1-[(4-chlorophenyl)methyl]-5-oxo-4,5-dihydro-1H-1,2,4-triazol-4-yl]acetamide], the IC50 was < 0.1 µM.

`Cn1c(N2CC(c3ccccc3)C(c3ccc(Cl)cc3)=N2)nn(Cc2cccc(C(N)=O)c2)c1=O` (stereo not shown) [Compound 182] gave an IC50 of 0.1 to 1 µM.

In the case of `C[C@H](C(N)=O)n1c(N2C[C@@H](c3ccccc3)C(c3ccc(Cl)cc3)=N2)nn(Cc2ccc(Cl)cc2)c1=O` [Compound 180], the IC50 is reported as > 5 µM.

Work on `C[C@@H](C(N)=O)n1c(N2C[C@@H](c3ccccc3)C(c3ccc(Cl)cc3)=N2)nn(Cc2ccc(Cl)cn2)c1=O` [Compound 201] yielded an IC50 of 0.1 to 1 µM.

In the case of `Cn1c(N2CC(c3ccccc3)C(c3ccc(Cl)cc3)=N2)nn(Cc2ccccc2Cl)c1=O` (stereo not shown) [Compound 171], the IC50 is reported as < 0.1 µM.

`Cn1c(N2C[C@H](c3ccccc3)C(c3ccc(Cl)cc3)=N2)nn(-c2ccc(CN3CCOCC3)cc2)c1=O` [Compound 144, 3-[(4S)(4-Chlorophenyl)-4-Phenyl-4,5-Dihydro-1H-Pyrazol-1-yl]-4-Methyl-1-[4-[(Morpholin-4-yl)Methyl] Phenyl]-4,5-Dihydro-1H-1,2,4-Triazol-5-One] showed an IC50 of 0.1 to 1 µM.

Work on `Cn1c(N2C[C@]3(CCc4ccccc43)C(c3ccc(Cl)cc3)=N2)nn(Cc2ccc(Cl)cc2)c1=O` [Compound 115, 3-[(1R)-3-(4-chlorophenyl)-1,2,3,5-tetrahydrospiro[indene-1,4-pyrazol]-1-y1]-1-[(4-chlorophenyl)methyl]-4-methyl-4,5-dihydro-1H-1,2,4-triazol-5-one] yielded an IC50 of 1 to 5 µM.

`C[C@H](C(=O)NCCO)n1c(N2C[C@@H](c3ccccc3)C(c3ccc(Cl)cc3)=N2)nn(Cc2ccc(Cl)cc2)c1=O` [Compound 191, (2R)-2-[3-[(4R)-3-(4-chlorophenyl)-4-phenyl-4,5-dihydropyrazol-1-yl]-1-[(4-chlorophenyl)methyl]-5-oxo-1,2,4-triazol-4-yl]-N-(2-hydroxyethyl)propanamide] showed an IC50 of 0.1 to 1 µM.

`Cn1c(N2CC(c3ccccc3)C(c3ccc(Cl)cc3)=N2)nn(Cc2ccc(C#N)cc2)c1=O` (stereo not shown) [Compound 160] was tested, and the IC50 was < 0.1 µM.

Molecule `COCCn1c(N2CC3(CCc4ccccc43)C(c3ccc(Cl)cc3)=N2)nn(Cc2ccc(Cl)cc2)c1=O` (stereo in doubt) [Compound 123, 3-[(1S)-3-(4-chlorophenyl)-1,2,3,5-tetrahydrospiro[indene-1,4-pyrazol]-1-yl]-1-[(4-chlorophenyl)methyl]-4-(2-methoxyethyl)-4,5-dihydro-1H-1,2,4-triazol-5-one] has an IC50 of 0.1 to 1 µM.

For `Cn1c(N2CC(c3ccccc3)C(c3ccc(Cl)cc3)=N2)nn(CCc2ccc(C(=O)O)cc2)c1=O` (stereo not shown) [Compound 195], the IC50 was > 5 µM.

`C[C@H](C(=O)NCCO)n1c(N2C[C@H](c3ccccc3)C(c3ccc(Cl)cc3)=N2)nn(Cc2ccc(Cl)cc2)c1=O` [Compound 190, (2R)-2-[3-[(4S)-3-(4-chlorophenyl)-4-phenyl-4,5-dihydropyrazol-1-yl]-1-[(4-chlorophenyl)methyl]-5-oxo-1,2,4-triazol-4-yl]-N-(2-hydroxyethyl)propanamide] was tested, and the IC50 was < 0.1 µM.

Molecule `Cc1ncc(Cn2nc(N3CC(c4ccccc4)C(c4ccc(Cl)cc4)=N3)n(C)c2=O)cn1` (stereo not shown) [Compound 196] has an IC50 of 0.1 to 1 µM.

For `CCOC(=O)Cn1c(N2C[C@@H](c3ccccc3)C(c3ccc(Cl)cc3)=N2)nn(-c2ccc(Cl)cc2)c1=O` [Compound 105, ethyl 2-[1-(4-chlorophenyl)-3-[(4R)-3-(4-chlorophenyl)-4-phenyl-4,5-dihydro-1H-pyrazol-1-yl]-5-oxo-4,5-dihydro-1H-1,2,4-triazol-4-yl]acetate], the IC50 was < 0.1 µM.

From patent publication US20230192657A1, “1,2,4-TRIAZOLINONE CB1 INHIBITORS” (Goldfinch Bio, Inc., priority 2020, published 2023)
